In patent US8859596B2, “Compounds as cannabinoid receptor ligands” (priority 2008, dated 2014) one finds Ki and EC50 data, which are given here for 16 compounds.

The target in one assay is human CB2 receptors (Homo sapiens (Human), UniProt P34972). Put plainly: human CB2 radioligand binding assay ([3H]CP 55,940 competition). Here is the method: (§1) The CB1 and CB2 radioligand binding assays described herein are utilized to ascertain the affinity of compounds of the present application for binding to CB2 relative to CB1 receptors.
HEK293 cells stably expressing human CB2 receptors were grown until a confluent monolayer was formed. Briefly, the cells were harvested and homogenized in TE buffer (50 mM Tris-HCl, 1 mM MgCl2, and 1 mM EDTA) using a polytron for 2×10 second bursts in the presence of protease inhibitors, followed by centrifugation at 45,000×g for 20 minutes. The final membrane pellet was re-homogenized in storage buffer (50 mM Tris-HCl, 1 mM MgCl2, and 1 mM EDTA and 10% sucrose) and frozen at −78° C. until used. Saturation binding reactions were initiated by the addition of membrane preparation (protein concentration of 5 μg/well for human CB2) into wells of a deep well plate containing [^3H]CP 55,940 (120 Ci/mmol, a nonselective CB agonist commercially available from Tocris) in assay buffer (50 mM Tris, 2.5 mM EDTA, 5 mM MgCl2, and 0.5 mg/mL fatty acid free BSA, pH 7.4). After 90 min incubation at 30° C., binding reaction was terminated by the addition of 300 μL/well of cold assay buffer followed by rapid vacuum filtration through a UniFilter-96 GF/C filter plates (pre-soaked in 1 mg/mL BSA for 2 hours). The bound activity was counted in a TopCount using Microscint-20. Saturation experiments were conducted with twelve concentrations of [^3H]CP 55,940 ranging from 0.01 to 8 nM. Competition experiments were conducted with 0.5 nM [^3H]CP 55,940 and five concentrations (0.01 nM to 10 μM) of displacing ligands. The addition of 10 μM unlabeled CP 55,940 (Tocris, Ellisville, Mo.) was used to assess nonspecific binding.

The target of assay [1] is T1, rat CB2 (Rattus norvegicus (Rat), UniProt Q9QZN9). Put plainly: rat CB2 radioligand binding assay ([3H]CP 55,940 competition). Here is the method:
as §1
HEK293 cells stably expressing rat CB2 receptors were grown until a confluent monolayer was formed. Briefly, the cells were harvested and homogenized in TE buffer (50 mM Tris-HCl, 1 mM MgCl2, and 1 mM EDTA) using a polytron for 2×10 second bursts in the presence of protease inhibitors, followed by centrifugation at 45,000×g for 20 minutes. The final membrane pellet was re-homogenized in storage buffer (50 mM Tris-HCl, 1 mM MgCl2, and 1 mM EDTA and 10% sucrose) and frozen at −78° C. until used. Saturation binding reactions were initiated by the addition of membrane preparation (protein concentration of 20 μg/well for rat CB2) into wells of a deep well plate containing [^3H]CP 55,940 (120 Ci/mmol, a nonselective CB agonist commercially available from Tocris) in assay buffer (50 mM Tris, 2.5 mM EDTA, 5 mM MgCl2, and 0.5 mg/mL fatty acid free BSA, pH 7.4). After 45 min incubation at 30° C., binding reaction was terminated by the addition of 300 μl/well of cold assay buffer followed by rapid vacuum filtration through a UniFilter-96 GF/C filter plates (pre-soaked in 1 mg/mL BSA for 2 hours). The bound activity was counted in a TopCount using Microscint-20. Saturation experiments were conducted with twelve concentrations of [^3H]CP 55,940 ranging from 0.01 to 8 nM. Competition experiments were conducted with 0.5 nM [^3H]CP 55,940 and five concentrations of displacing ligands selected from the range of 0.01 nM to […] addition of 10 μM unlabeled CP 55,940 (Tocris, Ellisville, Mo.) was used to assess nonspecific binding.

Assay [2] has as its target T1, rat CB2. Put plainly: CB2 cyclase functional assay (HitHunter cAMP). It is filed as cell-based. The note with it: HEK cells, forskolin 18 μM. Here is the method: (§2) The cyclase functional assays were performed using the HitHunter™ cAMP assay kit from DiscoveRx (Fremont, Calif.) according to vendor's protocol. Briefly, HEK cells expressing CB2 or CB1 receptors (rat or human) were detached using cell dissociation buffer (Invitrogen, Carlsbad, Calif.), dispersed and placed in suspension at 10,000 cells per well in 96 well plates prior to the assay. Cell suspensions were incubated at 37° C. for 20 min with variable concentrations of test ligands and or 10 μM CP 55,940-positive control in the presence of a fixed concentration of forskolin (18 μM for rat CB2 and 37 μM for rat CB1) in Dulbescco's phosphate-buffered saline (Invitrogen, Carlsbad, Calif.) supplemented with bovine serum albumin (0.01% final concentration). The reactions were terminated by the addition of lysis buffer and the luminescence was detected following the procedure according to the manufacturer's instructions. EC50 values were calculated using sigmoidal dose-response curve fitting from Prism (GraphPad).

The target in the next assay is rat CB1 (Rattus norvegicus (Rat), UniProt P20272). Briefly: CB1 cyclase functional assay (HitHunter cAMP). The note with it: HEK cells, forskolin 37 μM; read-out: rCB1 cyclase (EC50). In kind it is cell-based. Here is the method:
as §2

[3] abbreviates: HEK293 membranes, 0.5 nM [3H]CP 55,940, read-out: human CB2 (Ki).
Where [4] appears, read: HEK293 membranes, 0.5 nM [3H]CP 55,940, read-out: rat CB2 (Ki).

Where two headings read alike, the source gives them in different places.

Sequence of human CB2 receptors (P34972 whole entry): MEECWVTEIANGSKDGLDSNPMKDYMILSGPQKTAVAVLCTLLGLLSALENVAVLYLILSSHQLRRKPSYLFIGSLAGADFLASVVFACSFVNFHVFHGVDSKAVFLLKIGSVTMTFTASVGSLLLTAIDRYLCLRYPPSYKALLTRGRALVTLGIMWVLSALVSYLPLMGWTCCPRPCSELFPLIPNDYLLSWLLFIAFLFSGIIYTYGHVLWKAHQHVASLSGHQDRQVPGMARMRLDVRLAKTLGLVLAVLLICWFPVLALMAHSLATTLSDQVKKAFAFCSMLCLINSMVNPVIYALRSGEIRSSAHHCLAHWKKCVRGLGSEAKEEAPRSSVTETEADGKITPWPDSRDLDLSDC
T1 sequence (Q9QZN9 whole entry): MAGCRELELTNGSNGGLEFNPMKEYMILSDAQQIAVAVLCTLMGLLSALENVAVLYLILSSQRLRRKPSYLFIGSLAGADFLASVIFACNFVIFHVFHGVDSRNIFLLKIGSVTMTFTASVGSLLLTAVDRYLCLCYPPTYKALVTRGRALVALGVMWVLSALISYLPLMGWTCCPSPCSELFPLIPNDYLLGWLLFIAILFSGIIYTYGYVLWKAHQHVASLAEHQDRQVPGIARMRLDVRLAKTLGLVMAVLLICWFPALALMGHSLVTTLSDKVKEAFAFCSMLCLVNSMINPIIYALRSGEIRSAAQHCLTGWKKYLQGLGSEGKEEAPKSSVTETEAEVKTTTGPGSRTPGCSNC

In the case of `CCCCn1nc(C(C)(C)C)s/c1=N\C(=O)c1cc(C(F)(F)F)ccc1ON=C(N)C(C)(C)C` [Example 166, 2-({[1-amino-2,2-dimethylpropylidene]amino}oxy)-N-[(2Z)-3-butyl-5-tert-butyl-1,3,4-thiadiazol-2(3H)-ylidene]-5-(trifluoromethyl)benzamide], the Ki at human CB2 receptors (setting [3]) was 0.065 µM; at rat CB2 [1] (setting [4]), 0.043 µM. Besides, the figures for the EC50 at rat CB2 [2] and at rat CB1 were 0.00314 µM and 6.96 µM, respectively.
With `Cn1c(C(C)(C)C)c/c(=N\C(=O)c2cc(C(F)(F)F)ccc2ONC(C)(C)C)n1C[C@H]1CCCO1` [Example 142, 2-[(tert-butylamino)oxy]-N-{(3E)-5-tert-butyl-1-methyl-2-[(2R)-tetrahydrofuran-2-ylmethyl]-1,2-dihydro-3H-pyrazol-3-ylidene}-5-(trifluoromethyl)benzamide], the inhibition constant Ki on human CB2 receptors came to 0.024 µM; on rat CB2 [1], 0.0094 µM. Also, the EC50 on rat CB1 is above 27 µM.
Regarding `CCCCn1nc(C(C)(C)C)s/c1=N\C(=O)c1cc(C(F)(F)F)ccc1ON=C(C)C(F)(F)F` [Example 172, N-[(2Z)-3-butyl-5-tert-butyl-1,3,4-thiadiazol-2(3H)-ylidene]-5-(trifluoromethyl)-2-({[2,2,2-trifluoro-1-methylethylidene]amino}oxy)benzamide], the Ki at human CB2 receptors (setting [3]) came out at 0.052 µM; at rat CB2 [1] (setting [4]) it was 0.06 µM. For the same compound, the EC50 on rat CB2 [2] was 0.028 µM; at rat CB1, above 27 µM.
On to `CCCCn1nc(C(C)(C)C)s/c1=N\C(=O)c1cc(C(F)(F)F)ccc1NNC(=O)OC` [Example 192, methyl 2-[2-({[(2Z)-3-butyl-5-tert-butyl-1,3,4-thiadiazol-2(3H)-ylidene]amino}carbonyl)-4-(trifluoromethyl)phenyl]hydrazinecarboxylate], for which the Ki on human CB2 receptors and at rat CB2 [1] was 0.0007 µM throughout.
As for `CCCCn1nc(C(C)(C)C)s/c1=N\C(=O)c1cc(C(F)(F)F)ccc1N/N=C\c1cccc(C)n1` [Example 35, N-[(2Z)-3-butyl-5-tert-butyl-1,3,4-thiadiazol-2(3H)-ylidene]-2-{(2Z)-2-[(6-methylpyridin-2-yl)methylene]hydrazino}-5-(trifluoromethyl)benzamide], the Ki stood at 0.185 µM at human CB2 receptors and 0.02 µM at rat CB2 [1].
For `CC(C)(C)NOc1ccc(C(F)(F)F)cc1C(=O)/N=c1\sc(C(C)(C)C)nn1CCCCF` [Example 174, 2-[(tert-butylamino)oxy]-N-[(2Z)-5-tert-butyl-3-(4-fluorobutyl)-1,3,4-thiadiazol-2(3H)-ylidene]-5-(trifluoromethyl)benzamide], the Ki on human CB2 receptors (setting [3]) was found to be 0.0062 µM; at rat CB2 [1] (setting [4]), 0.0011 µM.
As to `CCCCn1nc(C(C)(C)C)s/c1=N\C(=O)c1cc(C(F)(F)F)ccc1ON(C)C` [Example 171, N-[(2Z)-3-butyl-5-tert-butyl-1,3,4-thiadiazol-2(3H)-ylidene]-2-[(dimethylamino)oxy]-5-(trifluoromethyl)benzamide], the Ki was found to be 0.021 µM on human CB2 receptors and 0.0049 µM at rat CB2 [1].
Take `CCCCn1nc(C(C)(C)C)s/c1=N\C(=O)c1cc(C(F)(F)F)ccc1ON=C(N)CC` [Example 186, 2-({[1-aminopropylidene]amino}oxy)-N-[(2Z)-3-butyl-5-tert-butyl-1,3,4-thiadiazol-2(3H)-ylidene]-5-(trifluoromethyl)benzamide]: the results for the Ki on human CB2 receptors (setting [3]) and on rat CB2 [1] (setting [4]) were 0.0051 µM and 0.0027 µM, respectively.
In the case of `CCCCn1nc(C(C)(C)C)s/c1=N\C(=O)c1cc(C(F)(F)F)ccc1NNC(=O)OC(C)(C)C` [Example 181, tert-butyl 2-[2-({[(2Z)-3-butyl-5-tert-butyl-1,3,4-thiadiazol-2(3H)-ylidene]amino}carbonyl)-4-(trifluoromethyl)phenyl]hydrazinecarboxylate], the values for the Ki at human CB2 receptors and on rat CB2 [1] were 0.001 µM and 0.0017 µM, respectively.
Regarding `C/C(=N\Oc1ccc(C(F)(F)F)cc1C(=O)/N=c1\cc(C(C)(C)C)n(C)n1CC1CC1)C(F)(F)F` [Example 179, N-[(3E)-5-tert-butyl-2-(cyclopropylmethyl)-1-methyl-1,2-dihydro-3H-pyrazol-3-ylidene]-5-trifluoromethyl-2-({[(1E)-2,2,2-trifluoro-1-methylethylidene]amino}oxy)benzamide], the Ki on human CB2 receptors (setting [3]) was above 1 µM; on rat CB2 [1] (setting [4]) it was 0.288 µM.
`CCCCn1nc(C(C)(C)C)s/c1=N\C(=O)c1cc(C(F)(F)F)ccc1NNC(N)=O` [Example 201, 2-[2-({[(2Z)-3-butyl-5-tert-butyl-1,3,4-thiadiazol-2(3H)-ylidene]amino}carbonyl)-4-(trifluoromethyl)phenyl]hydrazinecarboxamide]: the Ki on human CB2 receptors (setting [3]) came to 0.047 µM; on rat CB2 [1] (setting [4]), 0.0052 µM.
For `CCCCn1nc(C(C)(C)C)s/c1=N\C(=O)c1cc(C(F)(F)F)ccc1NNCc1ccccc1` [Example 202, 2-(2-benzylhydrazino)-N-[(2Z)-3-butyl-5-tert-butyl-1,3,4-thiadiazol-2(3H)-ylidene]-5-(trifluoromethyl)benzamide] the same measures were 0.043 µM and 0.036 µM.
For the compound `CCCCn1nc(C(C)(C)C)s/c1=N\C(=O)c1cc(C(F)(F)F)ccc1NN=C(C)C` [Example 187, N-[(2Z)-3-butyl-5-tert-butyl-1,3,4-thiadiazol-2(3H)-ylidene]-2-[2-(1-methylethylidene)hydrazino]-5-(trifluoromethyl)benzamide], the figures for the inhibition constant Ki at human CB2 receptors (setting [3]) and at rat CB2 [1] (setting [4]) were 0.247 µM and 0.12 µM, respectively.
Regarding `Cn1c(C(C)(C)C)c/c(=N\C(=O)c2cc(C(F)(F)F)ccc2ONC(C)(C)C)n1CCC(F)(F)F` [Example 156, 2-[(tert-butylamino)oxy]-N-[(3E)-5-tert-butyl-1-methyl-2-(3,3,3-trifluoropropyl)-1,2-dihydro-3H-pyrazol-3-ylidene]-5-(trifluoromethyl)benzamide], the Ki at human CB2 receptors was determined as 0.068 µM; on rat CB2 [1], 0.01 µM.
As to `CCCCn1nc(C(C)(C)C)s/c1=N\C(=O)c1cc(C(F)(F)F)ccc1O/N=C(\C)C(C)=O` [Example 180, N-[(2Z)-3-butyl-5-tert-butyl-1,3,4-thiadiazol-2(3H)-ylidene]-2-({[(1E)-1-methyl-2-oxopropylidene]amino}oxy)-5-(trifluoromethyl)benzamide], the Ki is 0.018 µM on human CB2 receptors (setting [3]) and 0.011 µM at rat CB2 [1] (setting [4]).
For `CCCCn1nc(C(C)(C)C)s/c1=N\C(=O)c1cc(C(F)(F)F)ccc1ON=C1CCCCCN1` [Example 189, 2-{[azepan-2-ylideneamino]oxy}-N-[(2Z)-3-butyl-5-tert-butyl-1,3,4-thiadiazol-2(3H)-ylidene]-5-(trifluoromethyl)benzamide], in that order: 0.0016 µM and 0.0049 µM.

The Ki is the equilibrium dissociation constant of an inhibitor or competing ligand from its target. One may read the EC50 as the concentration giving half of the maximal effect.
